Results: patent US5210193A, “Piperazine derivatives” (American Cyanamid Company, priority 1990, dated 1993)
Values after ≈ are worked out from the molar mass of the structure shown. Read-outs that look alike come from different tables or passages of the source.

Experiments:
Experiment in all cases: in vitro antibacterial MIC, agar plate dilution
Format in all cases: cell-based
[1] = tested on: Enterobacter aerogenes VGH 84-36; details: Klebsiella aerogenes, VGH8436, 18 hours, 35° C., read-out: MIC
Experimental: (§1) The in vitro antimicrobial spectrum of the compounds of ths invention were determined by the agar plate dilution method with Mueller-Hinton agar and an inoculum of each test organism of approximately 10^4 colony forming units delivered by the Steers replicating device. The minimal inhibitory concentration (MIC) in mcg/ml is defined as the lowest concentration of test compound that inhibited visible growth after 18 hours incubation at 35° C. Results are given in Table I, with the test compounds identified by the number of their hereinafter described examples.

[2] = tested on: Enterobacter cloacae K 84-10; details: Enterobacter cloacae, K8410, 18 h, 35° C., read-out: MIC
Experimental: as §1

[3] = tested on: Enterobacter cloacae VGH 84-37; details: Enterobacter cloacae, VGH8437, 18 h, 35° C., read-out: MIC
Experimental: as §1

[4] = tested on: Escherichia coli ATCC 25922; details: 35° C.
Experimental: as §1

[5] = tested on: Escherichia coli CMC 84-11; details: 35° C.
Experimental: as §1

[6] = tested on: Escherichia coli CMC 84-16; details: Escherichia coli, CMC8416, 18 h, 35° C., read-out: MIC
Experimental: as §1

Escherichia coli NAR 311 = details: NAR311, 18 hours, 35° C., read-out: MIC
Experimental: as §1

[7] = tested on: Escherichia coli PRNT 311; details: PRNT311, 18 hours, 35° C., read-out: MIC
Experimental: as §1

[8] = tested on: Klebsiella oxytoca MOR 84-28; details: MOR8428, 18 hours, 35° C.
Experimental: as §1

Klebsiella pneumoniae AD = details: Klebsiella pneumoniae, 18 h, 35° C., read-out: MIC
Experimental: as §1

[9] = tested on: Klebsiella pneumoniae MOR 84-4; details: Klebsiella pneumoniae, MOR844, 18 h, 35° C., read-out: MIC
Experimental: as §1

[10] = tested on: Morganella morganii CMC 84-37; details: 35° C.
Experimental: as §1

[11] = tested on: Morganella morganii VGH 84-11; details: VGH8411, 18 hours, 35° C., read-out: MIC
Experimental: as §1

[12] = tested on: Proteus rettgeri CMC 84-41; details: Providencia rettgeri, CMC8441, 18 h, 35° C., read-out: MIC
Experimental: as §1

[13] = tested on: Pseudomonas aeruginosa LL-1244; details: 35° C.
Experimental: as §1

[14] = tested on: Pseudomonas aeruginosa VGH 84-4; details: 35° C.
Experimental: as §1

[15] = tested on: Serratia marcescens F 0-35; details: Serratia marcescens, F035, 18 h, 35° C., read-out: MIC
Experimental: as §1

[16] = tested on: Serratia marcescens K 84-18; details: 35° C.
Experimental: as §1

[17] = tested on: Staphylococcus Spp saprophiticus VGH 84-50; details: 18 hours, 35° C., read-out: MIC
Experimental: as §1

[18] = tested on: Staphylococcus aureus ATTC 29213; details: 35° C.
Experimental: as §1

[19] = tested on: Staphylococcus aureus CMC 83-127; details: Staphylococcus aureus, CMC83127, 18 h, 35° C., read-out: MIC
Experimental: as §1

[20] = tested on: Staphylococcus aureus CMC 83-128; details: CMC83128, 18 hours, 35° C., read-out: MIC
Experimental: as §1

[21] = tested on: Staphylococcus aureus Smith; details: 35° C.
Experimental: as §1

[22] = tested on: Staphylococcus aureus VGH 84-45; details: 35° C.
Experimental: as §1

[23] = tested on: Staphylococcus aureus VGH 84-46; details: Staphylococcus aureus, VGH8446, 18 h, 35° C., read-out: MIC
Experimental: as §1

[24] = tested on: Staphylococcus epidermidis CMC 83-135; details: CMC83135, 18 hours, 35° C., read-out: MIC
Experimental: as §1

[25] = tested on: Staphylococcus epidermidis IO 83-58; details: IO8358, 18 hours, 35° C., read-out: MIC
Experimental: as §1

[26] = tested on: Staphylococcus epidermidis VGH 84-40; details: VGH8440, 18 hours, 35° C., read-out: MIC
Experimental: as §1

[27] = tested on: Streptococcus faecalis ATTC 29212; details: Enterococcus faecalis, ATTC29212, 18 hours, 35° C., read-out: MIC
Experimental: as §1

[28] = tested on: Streptococcus faecalis VGH 84-65; details: 35° C.
Experimental: as §1

[29] = Escherichia coli, ATCC25922, 18 h, read-out: MIC
[30] = Escherichia coli, CMC8411, 18 h, read-out: MIC
[31] = Morganella morganii, CMC8437, 18 h, read-out: MIC
[32] = Pseudomonas aeruginosa, LL1244, 18 h, read-out: MIC
[33] = Pseudomonas aeruginosa, VGH844, 18 h, read-out: MIC
[34] = Serratia marcescens, K8418, 18 h, read-out: MIC
[35] = Staphylococcus aureus, ATTC29213, 18 h, read-out: MIC
[36] = Staphylococcus aureus, 18 h, read-out: MIC
[37] = Staphylococcus aureus, VGH8445, 18 h, read-out: MIC
[38] = Enterococcus faecalis, VGH8465, 18 h, read-out: MIC

| MIC [1] | MIC [2] | MIC [3] | MIC [6] | MIC (Escherichia coli NAR 311) | MIC [7] | MIC [8] | MIC (Klebsiella pneumoniae AD) | MIC [9] | MIC [11] | MIC [12] | MIC [15] | MIC [17] | MIC [19] | MIC [20] | MIC [23] | MIC [24] | MIC [25] | MIC [26] | MIC [27] | Structure (SMILES) | further results |
| --- | --- | --- | --- | --- | --- | --- | --- | --- | --- | --- | --- | --- | --- | --- | --- | --- | --- | --- | --- | --- | --- |
| 4 µg/mL (≈ 9.23 µM) | 4 µg/mL (≈ 9.23 µM) | 4 µg/mL (≈ 9.23 µM) | 2 µg/mL (≈ 4.61 µM) | 32 µg/mL (≈ 73.8 µM) | 2 µg/mL (≈ 4.61 µM) | 8 µg/mL (≈ 18.5 µM) | 4 µg/mL (≈ 9.23 µM) | 4 µg/mL (≈ 9.23 µM) | 4 µg/mL (≈ 9.23 µM) | 8 µg/mL (≈ 18.5 µM) | 8 µg/mL (≈ 18.5 µM) | 2 µg/mL (≈ 4.61 µM) | 0.25 µg/mL (≈ 0.577 µM) | 0.5 µg/mL (≈ 1.15 µM) | 0.5 µg/mL (≈ 1.15 µM) | 1 µg/mL (≈ 2.31 µM) | 1 µg/mL (≈ 2.31 µM) | 0.25 µg/mL (≈ 0.577 µM) | 8 µg/mL (≈ 18.5 µM) | CCCCCCOCC1CN(c2cc3c(cc2F)c(=O)c(C(=O)O)cn3CC)CCN1 (stereo not drawn) [Example 77, 1-Ethyl-6-fluoro-7-[3-[(hexyloxy)methyl]-1-piperazinyl]-1,4-dihydro-4-oxo-3-quinolinecarboxylic acid] | MIC [4, 29]: 2 µg/mL (≈ 4.61 µM); MIC [5, 30]: 2 µg/mL (≈ 4.61 µM); MIC [10, 31]: 4 µg/mL (≈ 9.23 µM); MIC [13, 32]: > 256 µg/mL; MIC [14, 33]: 128 µg/mL (≈ 295 µM); MIC [16, 34]: 16 µg/mL (≈ 36.9 µM); MIC [18, 35]: 1 µg/mL (≈ 2.31 µM); MIC [21, 36]: 2 µg/mL (≈ 4.61 µM); MIC [22, 37]: 0.5 µg/mL (≈ 1.15 µM); MIC [28, 38]: 8 µg/mL (≈ 18.5 µM) |
| > 256 µg/mL | > 256 µg/mL | > 256 µg/mL | > 256 µg/mL | > 256 µg/mL | > 256 µg/mL | > 256 µg/mL | > 256 µg/mL | > 256 µg/mL | > 256 µg/mL | > 256 µg/mL | > 256 µg/mL | 64 µg/mL (≈ 124 µM) | 32 µg/mL (≈ 61.8 µM) | 128 µg/mL (≈ 247 µM) | 128 µg/mL (≈ 247 µM) | 128 µg/mL (≈ 247 µM) | 128 µg/mL (≈ 247 µM) | 64 µg/mL (≈ 124 µM) | 128 µg/mL (≈ 247 µM) | CCCCCCCCCCCCOCC1CN(c2cc3c(cc2F)c(=O)c(C(=O)O)cn3CC)CCN1 (stereo not drawn) [Example 74, 7-[3-[(Dodecyloxy)methyl]-1-piperazinyl]-1-ethyl-6-fluoro-1,4-dihydro-4-oxo-3-quinolinecarboxylic acid] | MIC [4, 29]: > 256 µg/mL; MIC [5, 30]: > 256 µg/mL; MIC [10, 31]: > 256 µg/mL; MIC [13, 32]: > 256 µg/mL; MIC [14, 33]: > 256 µg/mL; MIC [16, 34]: > 256 µg/mL; MIC [18, 35]: 128 µg/mL (≈ 247 µM); MIC [21, 36]: 128 µg/mL (≈ 247 µM); MIC [22, 37]: 128 µg/mL (≈ 247 µM); MIC [28, 38]: 128 µg/mL (≈ 247 µM) |
| < 0.12 µg/mL | < 0.12 µg/mL | < 0.12 µg/mL | < 0.12 µg/mL | 0.25 µg/mL (≈ 0.605 µM) | < 0.12 µg/mL | < 0.12 µg/mL | < 0.12 µg/mL | < 0.12 µg/mL | < 0.12 µg/mL | < 0.12 µg/mL | < 0.12 µg/mL | < 0.12 µg/mL | < 0.12 µg/mL | < 0.12 µg/mL | < 0.12 µg/mL | < 0.12 µg/mL | < 0.12 µg/mL | < 0.12 µg/mL | < 0.12 µg/mL | O=C(O)c1cn(C2CC2)c2cc(N3CCNC(c4ccsc4)C3)c(F)cc2c1=O (stereo not drawn) [Example 60] | MIC ([4]; 18 hours): < 0.12 µg/mL; MIC ([5]; 18 hours): < 0.12 µg/mL; MIC ([10]; 18 hours): < 0.12 µg/mL; MIC ([13]; 18 hours): 4 µg/mL (≈ 9.67 µM); MIC ([14]; 18 hours): 0.5 µg/mL (≈ 1.21 µM); MIC ([16]; 18 hours): < 0.12 µg/mL; MIC ([18]; 18 hours): < 0.12 µg/mL; MIC ([21]; 18 hours): < 0.12 µg/mL; MIC ([22]; 18 hours): < 0.12 µg/mL; MIC ([28]; 18 hours): < 0.12 µg/mL |
